What was measured:
[1] = test system: spontaneously hypertensive rats; assay: In vivo actions in spontaneously hypertensive rats (cGMP, blood pressure, renal function); set-up: species or system rat; settings: acetate salt, 10 mg/kg single IV bolus, SHR; for plasma cGMP: 15 minutes after administration; for diastolic blood pressure: 60 minutes post-bolus; for diastolic blood pressure / urinary sodium excretion / urinary volume / systolic blood pressure: vs vehicle (and Compound 2); for urinary sodium excretion / urinary volume: post-bolus; for systolic blood pressure: throughout 60 minutes post bolus
Experimental: The cGMP generating, blood pressure lowering and renal enhancing actions of a single intravenous (IV) bolus dose of Compound 3, Compound 1 or Compound 2 acetate salt (n=4/small molecule form: 10 mg/kg) or Vehicle (n=5: 15% DMSO/60% PEG300/25% PBS) in spontaneously hypertensive rats (SHRs; male: 12 weeks old) were investigated. Studies were performed in accordance with the Animal Welfare Act and with approval of the Mayo Clinic Institutional Animal Care and Use Committee.
SHRs were administered Inactin (100 mg/kg: IP) to induce anesthesia and then maintained with additional Inactin (100 mg/kg: IP), as required. Once adequate anesthesia was achieved, the anesthetized SHRs were placed on a heating table set at 37° C. to maintain body temperature for the entire study and then were subjected to vessel and bladder cannulation. A polyethylene (PE)-50 tube catheter was placed into the jugular vein for saline, Compound 3, Compound 1, Compound 2 or vehicle IV administration. The carotid artery was cannulated with a PE-50 tube catheter for blood pressure monitoring (Sonometrics, London, Ontario, Canada) and blood sampling/collection. The bladder was accessed and cannulated with a PE-90 tube catheter for passive urine collection. After completion of the procedural set up, a 45-minute equilibration period was performed that included continuous IV saline infusion, a 30-minute baseline (pre-bolus) urine collection and a single baseline blood sample at the end of the 30-minute baseline urine collection. […] BP was monitored and recorded, beginning prior to IV bolus administration (0-minute post-bolus) and then at 15, 30, 45 and 60 minutes post-bolus. At the end of the 60-minute clearance, the anesthetized rats were euthanized by exsanguination and all blood and urine samples were stored at −80° C. until assayed. Plasma and urinary cGMP levels were measured using a cGMP ELISA kit (Enzo Life Sciences, Farmingdale, NY) as instructed by the manufacturer. Urinary sodium concentrations were determined with an electrolyte analyzer (Diamond Diagnostics Inc., Holliston, MA).

human GC-A = biological target: T1, human GC-A (Homo sapiens, UniProt P16066); assay: cGMP levels (ELISA) in HEK293 cells overexpressing human GC-A; format: cell-based; settings: acetate salt; for cGMP generation in the presence of ANP: ANP (10^−10 M)
T1 construct: host or cells: HEK293
T1 sequence (P16066 33-1061): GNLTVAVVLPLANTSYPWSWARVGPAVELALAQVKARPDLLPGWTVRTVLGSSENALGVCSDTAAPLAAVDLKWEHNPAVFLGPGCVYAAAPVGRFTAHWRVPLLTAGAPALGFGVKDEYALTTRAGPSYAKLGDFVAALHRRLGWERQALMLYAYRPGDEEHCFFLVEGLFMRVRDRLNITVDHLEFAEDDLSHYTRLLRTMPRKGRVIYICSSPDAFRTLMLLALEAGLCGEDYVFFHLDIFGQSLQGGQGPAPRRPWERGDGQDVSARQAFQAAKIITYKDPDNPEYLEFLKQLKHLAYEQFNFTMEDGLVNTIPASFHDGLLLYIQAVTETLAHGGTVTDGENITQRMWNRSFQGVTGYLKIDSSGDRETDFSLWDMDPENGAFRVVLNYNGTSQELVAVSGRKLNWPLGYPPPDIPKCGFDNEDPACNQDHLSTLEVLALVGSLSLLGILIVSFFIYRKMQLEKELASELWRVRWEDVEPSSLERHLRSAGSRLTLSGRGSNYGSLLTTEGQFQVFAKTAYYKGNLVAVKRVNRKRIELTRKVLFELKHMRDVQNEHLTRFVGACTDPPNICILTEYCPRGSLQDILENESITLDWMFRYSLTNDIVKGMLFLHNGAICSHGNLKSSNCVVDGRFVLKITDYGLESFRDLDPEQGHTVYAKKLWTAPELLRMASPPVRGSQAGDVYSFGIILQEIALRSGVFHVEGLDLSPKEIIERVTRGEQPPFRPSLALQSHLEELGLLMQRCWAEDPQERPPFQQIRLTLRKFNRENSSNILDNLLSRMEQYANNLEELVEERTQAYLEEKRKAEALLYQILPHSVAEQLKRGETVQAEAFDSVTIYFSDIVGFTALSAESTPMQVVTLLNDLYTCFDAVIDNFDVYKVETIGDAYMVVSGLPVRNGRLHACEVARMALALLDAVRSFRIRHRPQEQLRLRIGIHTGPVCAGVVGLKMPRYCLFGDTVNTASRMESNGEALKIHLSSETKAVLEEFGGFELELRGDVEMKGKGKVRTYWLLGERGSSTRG
T1 sequence (P01160 124-151 partner limits assumed): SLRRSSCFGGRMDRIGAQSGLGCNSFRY
Experimental: HEK293 GC-A cells were seeded in 48-well plates (1×10^5 cell per well) and cultured overnight to reach 80-90% confluency. The treatment buffer that consists of Hank's Balanced Salt Solution (HBSS), 0.1% BSA, 2 mM HEPES and 0.5 mM 3-isobutyl-1-methylzanthine (IBMX—a non-specific phosphodiesterase inhibitor), was used in all experiments. Compound 3, Compound 1, and Compound 2 acetate salt were dissolved in DMSO and ANP was dissolved in phosphate buffered solution (PBS). On the experimental day, growth media was replaced with treatment buffer and HEK293 GC-A cells were 1) treated with Compound 3, Compound 1 or Compound 2 at doses of 1 or 10 μM (reaching a final concentration of 0).1% DMSO) alone for 5 min at 37° C.: or 2) pretreated with Compound 3, Compound 1 or Compound 2 at doses of 1 or 10 μM (reaching a final concentration of 0.1% DMSO) for 5 min at 37° C., followed by a treatment with ANP (10^-10 M) for additional 10 min at 37° C. HEK293 GC-A cells were also treated with vehicle (0.1% DMSO) which served as a negative control. Then all cells were washed with PBS once and lysed with 0.1M HCl. Intracellular cGMP was measured in the lysate using a commercial cGMP ELISA kit (Enzo Life Sciences, Farmingdale, NY) as instructed by the manufacturer.

SMILES | plasma cGMP [1] | urinary cGMP [1] | diastolic blood pressure [1] | urinary sodium excretion [1] | urinary volume [1] | systolic blood pressure [1] | cGMP generation in the presence of ANP (human GC-A; 1 or 10 μM) | cGMP generation, compound alone (human GC-A; 1 or 10 μM, without ANP, vs vehicle) | cGMP generation in the presence of ANP, Compound 1 compared with Compound 2 (human GC-A; both doses (1 and 10 μM), ANP (10^-10 M))
CN(C)CCN1CCCC(C(=O)Nc2nc3c(F)cc(F)cc3s2)C1 (racemic) [Compound 3, N-(4,6-difluorobenzo[d]thiazol-2-yl)-1-(2-(dimethylamino)ethyl) piperidine-3-carboxamide] | increase | increase | greater reduction | greater increase | greater increase | greater reduction | dose dependent increase | no effect | –
CN(C)CCN1CCC[C@H](C(=O)Nc2nc3c(F)cc(F)cc3s2)C1 [Compound 1, (S)-N-(4,6-difluorobenzo[d]thiazol-2-yl)-1-(2-(dimethylamino)ethyl) piperidine-3-carboxamide] | increase | increased | more effective | more effective | more effective | more effective | dose response increase | – | higher
CN(C)CCN1CCC[C@@H](C(=O)Nc2nc3c(F)cc(F)cc3s2)C1 [Compound 2, (R)-N-(4,6-difluorobenzo[d]thiazol-2-yl)-1-(2-(dimethylamino)ethyl) piperidine-3-carboxamide] | increase | did not increase | – | – | – | – | dose response increase | – | –

— US20250026746A1, “ENHANCERS OF PARTICULATE GUANYLYL CYCLASE RECEPTOR A” (Mayo Foundation for Medical Education and Research, priority 2021, published 2025)
